From US7326407B2, “Amine, amide, sulphonamide and carbamate derivatives of benzalmalonic salts and photoprotective cosmetic compositions comprised thereof” (L'Oreal, priority 2003, dated 2008)
Counter-ions that a name gives are not always drawn.

Assay: UV absorption spectrum in water
Assay type: physicochemical
Details: for UV E1% / UV εmax: at λmax

| Compound | UV λmax | UV E1% | UV εmax |
| --- | --- | --- | --- |
| Nc1ccc(C=C(C(=O)O)C(=O)O)cc1 [Example 1, dipiperidinium salt of 2-(4-aminobenzylidene)malonic acid] | 305 nm | 446 | 16800 L/mol/cm |
| Nc1ccc(C=C(C(=O)O)C(=O)O)cc1 [Example 2, disodium salt of 2-(4-aminobenzylidene)malonic acid] | 305 nm | 670 | 16800 L/mol/cm |
| Nc1ccc(C=C(C(=O)O)C(=O)O)cc1 [Example 3, dipotassium salt of 2-(4-aminobenzylidene)malonic acid] | 306 nm | 496 | 14000 L/mol/cm |
| CC(=O)Nc1ccc(C=C(C(=O)O)C(=O)O)cc1 [Example 4, dipotassium salt of 2-(4-acetamidobenzylidene)malonic acid] | 292 nm | 498 | 16200 L/mol/cm |
| dipotassium salt of 2-(4-laurylamidobenzylidene)malonic acid [Example 5] | 292 nm | 422 | 14000 L/mol/cm |
